Assay results from US10189839B2, “Tricyclic imidazole compounds as inhibitors of tryptophan hydroxylase” (ACTELION PHARMACEUTICALS LTD, priority 2013, dated 2019).

Molecular target: T1, full length human TPH1 (Homo sapiens, UniProt P17752)
T1 construct: To generate the enzyme, full length human TPH1 is cloned into the plasmid pET20b(+); made in house; host or cells: E. coli
T1 sequence (P17752 1-444): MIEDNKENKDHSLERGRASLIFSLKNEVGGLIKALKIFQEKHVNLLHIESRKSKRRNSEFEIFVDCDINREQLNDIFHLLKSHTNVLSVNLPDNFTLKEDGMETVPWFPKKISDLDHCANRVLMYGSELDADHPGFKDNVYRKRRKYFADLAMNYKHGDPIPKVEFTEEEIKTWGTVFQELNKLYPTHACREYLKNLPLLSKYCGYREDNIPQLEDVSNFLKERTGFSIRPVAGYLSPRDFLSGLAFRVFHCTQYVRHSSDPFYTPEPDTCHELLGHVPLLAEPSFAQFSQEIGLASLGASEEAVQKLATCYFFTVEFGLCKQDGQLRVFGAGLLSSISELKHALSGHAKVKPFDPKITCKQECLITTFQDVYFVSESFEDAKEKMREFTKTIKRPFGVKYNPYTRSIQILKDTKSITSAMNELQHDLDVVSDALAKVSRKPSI
Assay: Biochemical in vitro assay using fluorescence readout (TPH1 enzyme activity)
Details: Table 1, mean where determined several times
From the text: Inhibitory activities on tryptophan hydroxylase 1 have been measured for each example compound using the following procedure:
Biochemical In Vitro Assay Using Fluorescence Readout
To generate the enzyme, full length human TPH1 is cloned into the plasmid pET20b(+) (Novagen) and expressed in E. coli. The bacterial cells are ruptured by sonication on ice and the lysate is cleared by centrifugation. The resulting protein in the pellet is re-extracted and TPH1 is purified from the obtained lysate by affinity chromatography using a pterin cosubstrate analog immobilized to the resin of the column. The protein is further purified by size exclusion chromatography to remove protein aggregates. The activity of TPH1 is determined by using a fluorescence assay. The enzyme activity assay is carried out at 15° C. with atmosphere oxygen for the duration of 60 minutes in a volume of 64 μl. The reaction is carried out in a 0.1M Tris-HCl buffer, adjusted to pH 7.6, containing 1 mM DTT, 0.2 mg/ml catalase, 100 μM (±)-6-methyl-5,6,7,8-tetrahydropterine dihydrochloride, 40 μM L-tryptophan, and 40-80 nM of TPH1. The reaction is started by bringing together L-tryptophan with all the other reaction substituents and stopped by quenching with perchloric acid (HClO4). The amount of 5-hydroxy-L-tryptophan produced during the enzymatic reaction is determined by fluorescence readout. Fluorescence, as determined at 540 nm when excited at 300 nm wavelength, increases proportionally to the 5-hydroxy-L-tryptophan formed. Compounds are prepared as 10 mM stock solution in DMSO, then diluted in 384-well plates using DMSO followed by a transfer of the dilutions into the assay plate. Fluorescence is measured for each well and the fluorescence at 540 nm wavelength is compared to the fluorescence of the vehicle in place of compound. Inhibitory activities of example compounds with respect to the TPH1 protein are determined by calculating the IC50 value (the concentration of compound needed to inhibit 50% of the enzyme activity). The calculated IC50 values may fluctuate depending on the daily biochemical assay performance. Fluctuations of this kind are known to those skilled in the art. In the case where IC50 values have been determined several times for the same compound, the mean is given.

| IC50 | SMILES |
| --- | --- |
| 0.018 µM | COc1ccc(C2c3c(nc4n3CCCC4)CCN2C(=O)COc2ccc(C(=O)NC3CC3)nc2Cl)c(F)c1 (stereo not drawn) [Example 1.21.1, 6-chloro-N-cyclopropyl-5-(2-(1-(2-fluoro-4-methoxyphenyl)-3,4,6,7,8,9-hexahydroimidazo[1,2-a:5,4-c′]dipyridin-2(1H)-yl)-2-oxoethoxy)picolinamide] |
| 0.014 µM | Cc1nc(C)c(C2c3c(nc4n3CCCC4)CCN2C(=O)COc2ccc(N3CCCS3(=O)=O)nc2Cl)s1 (stereo not drawn) [Example 1.10.14, 2-((2-chloro-6-(1,1-dioxidoisothiazolidin-2-yl)pyridin-3-yl)oxy)-1-(1-(2,4-dimethylthiazol-5-yl)-3,4,6,7,8,9-hexahydroimidazo[1,2-a:5,4-c′]dipyridin-2(1H)-yl)ethanone] |
| 0.011 µM | CN(C)C(=O)c1ccc(OCC(=O)N2CCc3nc4n(c3C2c2ccc(C3CC3)cc2F)CCCC4)c(Cl)n1 (stereo not drawn) [Example 1.8.4, 6-chloro-5-(2-(1-(4-cyclopropyl-2-fluorophenyl)-3,4,6,7,8,9-hexahydroimidazo[1,2-a:5,4-c′]dipyridin-2(1H)-yl)-2-oxoethoxy)-N,N-dimethylpicolinamide] |
| 0.008 µM | CCc1nc(NS(C)(=O)=O)ccc1OCC(=O)N1CCc2nc3n(c2[C@@H]1c1ccc(Cl)cc1F)CCCC3 [Example 1.1.18, (S)-N-(5-(2-(1-(4-chloro-2-fluorophenyl)-3,4,6,7,8,9-hexahydroimidazo[1,2-a:5,4-c′]dipyridin-2(1H)-yl)-2-oxoethoxy)-6-ethylpyridin-2-yl)methanesulfonamide] |
| 0.024 µM | O=C(COc1ccc(N2CCOCC2)cc1Cl)N1CCc2nc3n(c2C1c1ccc(C2CC2)cc1F)CCNC3 (stereo not drawn) [Example 5.2.4, 2-(2-chloro-4-morpholinophenoxy)-1-(1-(4-cyclopropyl-2-fluorophenyl)-3,4,6,7,8,9-hexahydropyrido[4′,3′:4,5]imidazo[1,2-a]pyrazin-2(1H)-yl)ethanone] |
| 0.558 µM | CCOC(=O)c1csc(C2c3c(nc4n3CCCC4)CCN2C(=O)COc2ccc(NS(C)(=O)=O)nc2Cl)n1 (stereo not drawn) [Example 1.5.1, Ethyl 2-(2-(2-((2-chloro-6-(methylsulfonamido)pyridin-3-yl)oxy)acetyl)-1,2,3,4,6,7,8,9-octahydroimidazo[1,2-a:5,4-c′]dipyridin-1-yl)thiazole-4-carboxylate] |
| 0.006 µM | CC(=O)N1CCn2c(nc3c2C(c2ccc(C4CC4)cc2F)N(C(=O)COc2ccc(N4CC(F)(F)C4)nc2Cl)CC3)C1 (stereo not drawn) [Example 5.2.12, 1-(7-acetyl-1-(4-cyclopropyl-2-fluorophenyl)-3,4,6,7,8,9-hexahydropyrido[4′,3′:4,5]imidazo[1,2-a]pyrazin-2(1H)-yl)-2-((2-chloro-6-(3,3-difluoroazetidin-1-yl)pyridin-3-yl)oxy)ethanone] |
| 0.347 µM | COc1nc(NS(C)(=O)=O)ccc1OCC(=O)N1CCc2nc3n(c2C1c1ccc(Cl)cc1F)CCCC3 (stereo not drawn) [Example 1.1.13, N-(5-(2-(1-(4-chloro-2-fluorophenyl)-3,4,6,7,8,9-hexahydroimidazo[1,2-a:5,4-c′]dipyridin-2(1H)-yl)-2-oxoethoxy)-6-methoxypyridin-2-yl)methanesulfonamide] |
| 0.017 µM | Cc1nc(C)c(C2c3c(nc4n3CCCC4)CCN2C(=O)COc2ccc(N3CCN(C)CC3)nc2Cl)s1 (stereo not drawn) [Example 1.10.9, 2-((2-chloro-6-(4-methylpiperazin-1-yl)pyridin-3-yl)oxy)-1-(1-(2,4-dimethylthiazol-5-yl)-3,4,6,7,8,9-hexahydroimidazo[1,2-a:5,4-c′]dipyridin-2(1H)-yl)ethanone] |
| 0.078 µM | COc1ccc(C2c3c(nc4n3CCCC4)CCN2C(=O)COc2ccc(NS(C)(=O)=O)nc2Cl)c(F)c1 (stereo not drawn) [Example 1.21.2, N-(6-chloro-5-(2-(1-(2-fluoro-4-methoxyphenyl)-3,4,6,7,8,9-hexahydroimidazo[1,2-a:5,4-c′]dipyridin-2(1H)-yl)-2-oxoethoxy)pyridin-2-yl)methanesulfonamide] |
| 0.06 µM | COCCOc1ccc(C2c3c(nc4n3CCCC4)CCN2C(=O)COc2ccc(C(=O)NC3CC3)nc2Cl)c(F)c1 (stereo not drawn) [Example 1.27.1, 6-chloro-N-cyclopropyl-5-(2-(1-(2-fluoro-4-(2-methoxyethoxy)phenyl)-3,4,6,7,8,9-hexahydroimidazo[1,2-a:5,4-c′]dipyridin-2(1H)-yl)-2-oxoethoxy)picolinamide] |
| 0.033 µM | Cc1nc(C)c(C2c3c(nc4n3CCCC4)CCN2C(=O)COc2ccc(C3CC3)nc2Cl)s1 (stereo not drawn) [Example 1.10.8, 2-((2-chloro-6-cyclopropylpyridin-3-yl)oxy)-1-(1-(2,4-dimethylthiazol-5-yl)-3,4,6,7,8,9-hexahydroimi-dazo[1,2-a:5,4-c′]dipyridin-2(1H)-yl)ethanone] |
| 0.015 µM | CCc1nc(N2CCCS2(=O)=O)ccc1OCC(=O)N1CCc2nc3n(c2C1c1scnc1C)CCCC3 (stereo not drawn) [Example 1.13.2, 2-((6-(1,1-dioxidoisothiazoli132din-2-yl)-2-ethylpyridin-3-yl)oxy)-1-(1-(4-methylthiazol-5-yl)-3,4,6,7,8,9-hexahydroimidazo[1,2-a:5,4-c′]dipyridin-2(1H)-yl)ethanone] |
| 0.077 µM | CC(C)(C)OC(=O)N1CCn2c(nc3c2C(c2ncc(C4CC4)cc2F)N(C(=O)COc2ccc(N4CCOCC4)nc2Cl)CC3)C1 (stereo not drawn) [Example 5.4.1, tert-butyl 2-(2-((2-chloro-6-morpholinopyridin-3-yl)oxy)acetyl)-1-(5-cyclopropyl-3-fluoropyridin-2-yl)-1,2,3,4,8,9-hexahydropyrido[4′,3′:4,5]imidazo[1,2-a]pyrazine-7(6H)-carboxylate] |
| 0.031 µM | CCc1nc(C(=O)NC2CC2)ccc1OCC(=O)N1CCc2nc3n(c2C1c1ccc(Cl)cc1F)CCS3 (stereo not drawn) [Example 4.1.9, 5-(2-(5-(4-chloro-2-fluorophenyl)-2,3,7,8-tetrahydrothiazolo[2′,3′:2,3]imidazo[4,5-c]pyridin-6(5H)-yl)-2-oxoethoxy)-N-cyclopropyl-6-ethylpicolinamide] |
| 0.185 µM | CCc1nc(Cl)ncc1OCC(=O)N1CCc2nc3n(c2C1c1ccc(Cl)cc1F)CCS3 (stereo not drawn) [Example 4.1.11, 1-(5-(4-chloro-2-fluorophenyl)-2,3,7,8-tetrahydrothiazolo[2′,3′:2,3]imidazo[4,5-c]pyridin-6(5H)-yl)-2-((2-chloro-4-ethylpyrimidin-5-yl)oxy)ethanone] |
| 0.054 µM | CCc1nc(C)ccc1OCC(=O)N1CCc2nc3n(c2C1c1ccc(C2CC2)cc1F)CCNC3 (stereo not drawn) [Example 5.2.3, 1-(1-(4-cyclopropyl-2-fluorophenyl)-3,4,6,7,8,9-hexahydropyrido[4′,3′:4,5]imidazo[1,2-a]pyrazin-2(1H)-yl)-2-((2-ethyl-6-methylpyridin-3-yl)oxy)ethanone] |
| 0.008 µM | CCc1nc(C(=O)NC2CC2)ccc1OCC(=O)N1CCc2nc3n(c2C1c1ncc(C)cc1F)CCCC3 (stereo not drawn) [Example 1.6.7, N-cyclopropyl-6-ethyl-5-(2-(1-(3-fluoro-5-methylpyridin-2-yl)-3,4,6,7,8,9-hexahydroimidazo[1,2-a:5,4-c′]dipyridin-2(1H)-yl)-2-oxoethoxy)picolinamide] |
| 0.009 µM | Cc1ccc(C2c3c(nc4n3CCCC4)CCN2C(=O)COc2ccc(N3CCCS3(=O)=O)nc2Cl)c(F)c1F (stereo not drawn) [Example 1.9.6, 2-((2-chloro-6-(1,1-dioxidoisothiazolidin-2-yl)pyridin-3-yl)oxy)-1-(1-(2,3-difluoro-4-methylphenyl)-3,4,6,7,8,9-hexahydroimidazo[1,2-a:5,4-c′]dipyridin-2(1H)-yl)ethanone] |
| 0.146 µM | CN(C)C(=O)c1ccc(OC(C)(C)C(=O)N2CCc3nc4n(c3C2c2ccc(Cl)cc2F)CCCC4)c(Cl)n1 (stereo not drawn) [Example 1.1.25, 6-chloro-5-((1-(1-(4-chloro-2-fluorophenyl)-3,4,6,7,8,9-hexahydroimidazo[1,2-a:5,4-c′]dipyridin-2(1H)-yl)-2-methyl-1-oxopropan-2-yl)oxy)-N,N-dimethylpicolinamide] |
| 0.015 µM | CC(=O)N1CCn2c(nc3c2C(c2ccc(C)cc2F)N(C(=O)COc2ccc(CN4CCOCC4)cc2Cl)CC3)C1 (stereo not drawn) [Example 5.12.3, 1-(7-acetyl-1-(2-fluoro-4-methylphenyl)-3,4,6,7,8,9-hexahydropyrido[4′,3′:4,5]imidazo[1,2-a]pyrazin-2(1H)-yl)-2-(2-chloro-4-(morpholinomethyl)phenoxy)ethanone] |
